Laboratory results reported in DBAASP.
≈ marks a conversion by molar mass, not a printed value.

What was measured:
Assay in all cases: ≥ marks a high value that may be exact or a test limit, other limits are often not marked, values filed in µg/mL are converted to µM
Escherichia coli UB1005 = tested on: Escherichia coli UB1005
[1] = tested on: Pseudomonas aeruginosa Z61
[2] = tested on: Pseudomonas aeruginosa H547
[3] = tested on: Pseudomonas aeruginosa K799
[4] = tested on: Salmonella enterica subsp. enterica serovar Typhimurium ATCC 14028s
[5] = tested on: Pseudomonas aeruginosa H744
[6] = tested on: Staphylococcus aureus USA 300
Escherichia coli BL21 = tested on: Escherichia coli BL21
[7] = tested on: Pseudomonas aeruginosa PAO1
[8] = tested on: Streptococcus pyogenes M1T1 5448
[9] = tested on: Staphylococcus aureus ATCC 43300
Salmonella sp. = tested on: Salmonella sp.
Escherichia coli = tested on: Escherichia coli
[10] = tested on: Salmonella enterica subsp. enterica serovar Enteritidis
[11] = tested on: Pseudomonas aeruginosa ATCC 27853
Yersinia enterocolitica = tested on: Yersinia enterocolitica
[12] = tested on: Escherichia coli ATCC 25922
[13] = tested on: Cryptococcus neoformans ATCC 32264
[14] = tested on: Candida albicans ATCC 10231
[15] = tested on: Staphylococcus aureus ATCC 29213
[16] = tested on: Enterococcus faecium t62764
[17] = tested on: Pseudomonas aeruginosa PAO1 H103
[18] = tested on: Enterobacter cloacae 218R
[19] = tested on: Klebsiella pneumoniae ESBL 63575
[20] = tested on: Pseudomonas aeruginosa H1027
[21] = tested on: Pseudomonas aeruginosa H1030
[22] = tested on: Staphylococcus aureus ATCC 25923
[23] = tested on: Enterococcus faecalis W61950
[24] = tested on: Klebsiella pneumoniae ESBL 61962
[25] = tested on: Staphylococcus aureus C623
[26] = tested on: Escherichia coli ESBL 63103
[27] = tested on: Stenotrophomonas maltophilia ATCC 13637
[28] = tested on: Enterococcus faecalis ATCC 29212
[29] = tested on: Pseudomonas aeruginosa 213
[30] = tested on: Pseudomonas aeruginosa 198
[31] = tested on: Pseudomonas aeruginosa LES400
[32] = tested on: Enterococcus faecium mic80
Pseudomonas aeruginosa 9 = tested on: Pseudomonas aeruginosa 9
[33] = tested on: Escherichia coli ESBL 64771
[34] = tested on: Enterococcus faecalis f43559
Escherichia coli 55B5 = tested on: Escherichia coli 55B5
Pseudomonas aeruginosa = tested on: Pseudomonas aeruginosa
Salmonella typhimurium = tested on: Salmonella typhimurium

Q: Which MIC (Escherichia coli UB1005) does the source give for `CC(C)C[C@H](NC(=O)[C@H](C)NC(=O)[C@H](CC(N)=O)NC(=O)[C@@H]1CCCN1C(=O)CNC(=O)[C@H](CO)NC(=O)[C@H](CC(N)=O)NC(=O)[C@@H](NC(=O)[C@H](C)NC(=O)[C@H](CCCCN)NC(=O)[C@H](CCC(N)=O)NC(=O)[C@H](C)NC(=O)[C@H](CCCCN)NC(=O)[C@H](Cc1c[nH]c2ccccc12)NC(=O)[C@H](Cc1c[nH]c2ccccc12)NC(=O)[C@H](CCCCN)NC(=O)[C@@H](N)CCCCN)C(C)C)C(=O)N[C@@H](CCC(N)=O)C(=O)N[C@H](C(=O)N[C@@H](CC(C)C)C(=O)N[C@@H](C)C(=O)N[C@@H](CCC(N)=O)C(=O)O)[C@@H](C)O` [KKWWKAQKAVNSGPNALQTLAQ] here?
A: 25.9 µM (≈ 64 µg/mL)

Q: And the MIC [1]?
A: 25.9 µM (≈ 64 µg/mL)

Q: What about the MIC [2] of the same compound?
A: 25.9 µM (≈ 64 µg/mL)

Q: What about the MIC [3] of the same compound?
A: 25.9 µM (≈ 64 µg/mL)

Q: And the MIC [4]?
A: 25.9 µM (≈ 64 µg/mL)

Q: And the MIC [5]?
A: 25.9 µM (≈ 64 µg/mL)

Q: Which results are given for `CC[C@H](C)[C@H](NC(=O)[C@H](Cc1ccccc1)NC(=O)[C@H](C)NC(=O)[C@H](CCCCN)NC(=O)[C@H](CCCCN)NC(=O)CNC(=O)[C@H](CCCN=C(N)N)NC(=O)[C@H](CCCCN)NC(=O)[C@H](CCCN=C(N)N)NC(=O)[C@H](CC(C)C)NC(=O)[C@H](CCC(=O)O)NC(=O)[C@H](CCC(=O)O)NC(=O)[C@H](CC(C)C)NC(=O)[C@H](CC(C)C)NC(=O)[C@H](Cc1ccc(O)cc1)NC(=O)[C@H](CCCCN)NC(=O)[C@@H](NC(=O)[C@H](CC(C)C)NC(=O)[C@H](C)NC(=O)[C@H](CCC(N)=O)NC(=O)[C@H](CCCN=C(N)N)NC(=O)CNC(=O)[C@@H](N)Cc1c[nH]c2ccccc12)[C@@H](C)O)C(=O)N[C@@H](C)C(=O)N[C@@H](Cc1c[nH]c2ccccc12)C(=O)O` [WGRQALTKYLLEELRKRGKKAFIAW]?
A: MIC [6]: ≥ 128 µM; MIC (Escherichia coli BL21): 16 µM (≈ 49 µg/mL); MIC [7]: 64 µM (≈ 196 µg/mL); MIC [8]: 2 µM (≈ 6.13 µg/mL)

Q: `N=C(N)NCCC[C@H](NC(=O)[C@H](CCCNC(=N)N)NC(=O)[C@H](Cc1c[nH]c2ccccc12)NC(=O)[C@H](Cc1c[nH]c2ccccc12)NC(=O)[C@H](Cc1c[nH]c2ccccc12)NC(=O)[C@H](Cc1c[nH]c2ccccc12)NC(=O)[C@H](Cc1c[nH]c2ccccc12)NC(=O)[C@H](CCCCN)NC(=O)[C@H](Cc1c[nH]c2ccccc12)NC(=O)[C@H](Cc1c[nH]c2ccccc12)NC(=O)[C@@H](N)CCCNC(=N)N)C(=O)N[C@@H](Cc1c[nH]c2ccccc12)C(=O)N[C@@H](CCCCN)C(=O)N[C@@H](Cc1c[nH]c2ccccc12)C(=O)N[C@@H](CCCCN)C(=O)N[C@@H](CCCCN)C(N)=O` [RWWKWWWWWRRWKWKK] was tested. Which MIC [9] did it give?
A: > 50 µM

Q: What about the MIC (Salmonella sp.) of the same compound?
A: ≥ 50 µM

Q: What about the MIC (Escherichia coli) of the same compound?
A: > 50 µM

Q: And the MIC [10]?
A: 25 µM (≈ 66.9 µg/mL)

Q: What about the MIC [11] of the same compound?
A: > 50 µM

Q: What about the MIC (Yersinia enterocolitica) of the same compound?
A: ≥ 50 µM

Q: What about the MIC [12] of the same compound?
A: > 50 µM

Q: And the MIC [13]?
A: ≥ 200 µM

Q: What about the MIC [14] of the same compound?
A: 100 µM (≈ 267 µg/mL)

Q: What about the MIC [15] of the same compound?
A: > 50 µM

Q: With `CC[C@H](C)[C@H](NC(=O)[C@H](CCCN=C(N)N)NC(=O)CNC(=O)[C@@H](NC(=O)[C@H](CCCCN)NC(=O)[C@H](CCCN=C(N)N)NC(=O)[C@@H](NC(=O)[C@H](Cc1ccc(O)cc1)NC(=O)[C@H](CCCN=C(N)N)NC(=O)[C@H](CCCN=C(N)N)NC(=O)[C@H](CC(C)C)NC(=O)[C@H](CCC(=O)O)NC(=O)[C@H](CCCCN)NC(=O)[C@H](C)NC(=O)[C@@H](NC(=O)[C@H](CCCN=C(N)N)NC(=O)[C@H](CC(N)=O)NC(=O)[C@@H](NC(=O)CNC(=O)[C@H](C)N)[C@@H](C)O)[C@@H](C)CC)[C@@H](C)CC)C(C)C)C(=O)N[C@@H](C)C(=O)N[C@@H](CCCN=C(N)N)C(=O)N[C@@H](CCCCN)C(=O)N[C@@H](CCCCN)C(=O)N[C@@H](Cc1c[nH]c2ccccc12)C(=O)O` [AGTNRIAKELRRYIRKVGRIARKKW] as the compound, how does the MIC (Escherichia coli BL21) read?
A: 1 µM (≈ 3.04 µg/mL)

Q: And the MIC [7]?
A: 16 µM (≈ 48.7 µg/mL)

Q: What about the MIC [8] of the same compound?
A: 1 µM (≈ 3.04 µg/mL)

Q: Which results are given for `CC(C)C[C@H](NC(=O)[C@H](Cc1c[nH]c2ccccc12)NC(=O)[C@H](Cc1c[nH]c2ccccc12)NC(=O)[C@H](CCCCN)NC(=O)[C@H](Cc1c[nH]c2ccccc12)NC(=O)[C@H](CCCN=C(N)N)NC(=O)[C@H](CCCN=C(N)N)NC(=O)[C@H](Cc1c[nH]c2ccccc12)NC(=O)[C@@H](N)CCCN=C(N)N)C(=O)O` [RWRRWKWWL]?
A: MIC [16]: 0.611 µM (≈ 0.9 µg/mL); MIC [17]: 1.36 µM (≈ 2 µg/mL); MIC [18]: 2.65 µM (≈ 3.9 µg/mL); MIC [19]: 5.02 µM (≈ 7.4 µg/mL); MIC [20]: 0.136 µM (≈ 0.2 µg/mL); MIC [21]: 5.5 µM (≈ 8.1 µg/mL); MIC [22]: 1.36 µM (≈ 2 µg/mL); MIC [23]: ≥ 42.1 µM; MIC [24]: 21 µM (≈ 31 µg/mL); MIC [25]: 1.36 µM (≈ 2 µg/mL); MIC [26]: 2.65 µM (≈ 3.9 µg/mL); MIC [27]: 0.34 µM (≈ 0.5 µg/mL); MIC [28]: 10.9 µM (≈ 16 µg/mL); MIC [29]: 10.9 µM (≈ 16 µg/mL); MIC [30]: 5.5 µM (≈ 8.1 µg/mL); MIC [31]: 2.65 µM (≈ 3.9 µg/mL); MIC [32]: 2.65 µM (≈ 3.9 µg/mL); MIC (Pseudomonas aeruginosa 9): 5.5 µM (≈ 8.1 µg/mL); MIC [33]: 1.36 µM (≈ 2 µg/mL); MIC [34]: ≥ 42.1 µM

Q: What does the source list for `CC[C@H](C)[C@H](NC(=O)[C@H](C)N)C(=O)N[C@@H](Cc1cnc[nH]1)C(=O)N[C@@H](CCCCN)C(=O)N[C@@H](CC(C)C)C(=O)N[C@@H](C)C(=O)N[C@@H](Cc1cnc[nH]1)C(=O)N[C@@H](CCCCN)C(=O)N[C@@H](CC(C)C)C(=O)N[C@H](C(=O)N[C@@H](CCCCN)C(=O)N[C@@H](CCCCN)C(=O)N[C@H](C(=O)N[C@@H](CC(C)C)C(=O)N[C@@H](CCCN=C(N)N)C(=O)N[C@@H](C)C(=O)N[C@H](C(=O)N[C@@H](CCCCN)C(=O)N[C@@H](CCCCN)C(=O)N[C@@H](CC(C)C)C(=O)N[C@@H](C)C(=O)N[C@@H](CC(N)=O)C(=O)O)C(C)C)[C@@H](C)O)[C@@H](C)O` [AIHKLAHKLTKKTLRAVKKLAN]?
A: MIC (Escherichia coli 55B5): 10.5 µM (≈ 26.1 µg/mL); MIC (Escherichia coli UB1005): 12.5 µM (≈ 31 µg/mL); MIC (Pseudomonas aeruginosa): 12.5 µM (≈ 31 µg/mL); MIC (Salmonella typhimurium): 10.5 µM (≈ 26.1 µg/mL)

Q: How did the MIC [9] turn out when `CC[C@H](C)[C@H](NC(=O)[C@H](CCC(N)=O)NC(=O)[C@@H](N)CCCN=C(N)N)C(=O)N[C@@H](CCCN=C(N)N)C(=O)N[C@@H](Cc1c[nH]c2ccccc12)C(N)=O` [RQIRW] was run?
A: > 50 µM

Q: What about the MIC (Salmonella sp.) of the same compound?
A: ≥ 50 µM

Q: What about the MIC (Escherichia coli) of the same compound?
A: > 50 µM

Q: And the MIC [10]?
A: ≥ 50 µM

Q: And the MIC [11]?
A: > 50 µM

Q: And the MIC (Yersinia enterocolitica)?
A: ≥ 50 µM

Q: What about the MIC [12] of the same compound?
A: > 50 µM

Q: What about the MIC [15] of the same compound?
A: > 50 µM
